# Calls of active or inactive are those of the source. No cut-off for these calls is given here.
# How the values were obtained:
# LoVo [1] = test: Cell cycle arrest in human LoVo cells at 15 uM after 24 hrs by propidium iodide staining based flow cytometric method; type: functional
# [2] = Induction of apoptosis in human LoVo/DX cells assessed as increase in caspase3/7 activity at 15 uM using Ac-DEVD-ACC as substrate pretreated for 24 hrs followed by substrate addition measured for 2 hrs by fluorescence assay relative to control; type: functional
# LoVo [3] = test: Induction of apoptosis in human LoVo cells assessed as increase in caspase3/7 activity at 15 uM using Ac-DEVD-ACC as substrate pretreated for 24 hrs followed by substrate addition measured for 2 hrs by fluorescence assay relative to control; type: functional
# LoVo [4] = test: Induction of apoptosis in human LoVo cells assessed as loss of mitochondrial membrane potential at 15 uM after 24 hrs by JC-1 staining based flow cytometric method relative to control; type: functional
# [5] = Induction of apoptosis in human LoVo/DX cells assessed as loss of mitochondrial membrane potential at 15 uM after 24 hrs by JC-1 staining based flow cytometric method relative to control; type: functional
# LoVo [6] = test: Induction of apoptosis in human LoVo cells assessed as late apoptotic cells at 15 uM after 24 hrs by APC-Annexin-V/propidium iodide staining based flow cytometric method relative to control; type: functional
# LoVo/DX = test: Induction of apoptosis in human LoVo/DX cells assessed as late apoptotic cells at 15 uM after 24 hrs by APC-Annexin-V/propidium iodide staining based flow cytometric method relative to control; type: functional
# LoVo [7] = test: Induction of apoptosis in human LoVo cells assessed as increase in early apoptotic cells at 15 uM after 24 hrs by APC-Annexin-V/propidium iodide staining based flow cytometric method relative to control; type: functional
# LoVo [8] = test: Induction of apoptosis in human LoVo cells assessed as necrotic cells at 15 uM after 24 hrs by APC-Annexin-V/propidium iodide staining based flow cytometric method (reference value: 10%); type: functional
# 4T1 [9] = test: Anti-tumor activity against mouse 4T1 cells implanted in BALB/c mdb mouse assessed as tumor growth inhibition at 300 umol/kg, ip administered five times weekly measured on day 29 post cell innoculum relative to control; type: functional; conditions: 4T1, ip, 696 h, read-out: TGI
# 4T1 [10] = test: Anti-tumor activity against mouse 4T1 cells implanted in BALB/c mdb mouse assessed as tumor growth inhibition at 300 umol/kg, ip administered five times weekly measured on day 15 post cell innoculum relative to control; type: functional; conditions: 4T1, ip, 360 h, read-out: TGI
# Mus musculus [11] = test: Toxicity in BALB/c mdb mouse implanted with mouse 4T1 cells assessed as body weight loss at 300 umol/kg, ip administered five times weekly measured on day 11 post cell innoculum; type: organism-based; conditions: in vivo
# Mus musculus [12] = test: Toxicity in BALB/c mdb mouse implanted with mouse 4T1 cells assessed as body weight loss at 300 umol/kg, ip administered on day 14 post cell innoculum; type: organism-based; conditions: in vivo
# Mus musculus [13] = test: Hepatotoxicity in BALB/c mdb mouse implanted with mouse 4T1 cells assessed as liver weight at 300 umol/kg, ip administered five times weekly measured at 29 day post cell innoculum (reference value: 1.2 +/- 0.13 g); type: toxicity, organism-based; conditions: in vivo, 696 h
# Mus musculus [14] = test: Nephrotoxicity in BALB/c mdb mouse implanted with mouse 4T1 cells assessed as kidney weight at 300 umol/kg, ip administered five times weekly measured at 29 day post cell innoculum (reference value: 0.136 +/- 0.006 g); type: toxicity, organism-based; conditions: in vivo, 696 h
# Mus musculus [15] = test: Toxicity in BALB/c mdb mouse implanted with mouse 4T1 cells assessed as spleen weight at 300 umol/kg, ip administered five times weekly measured at 29 day post cell innoculum (reference value: 0.603 +/- 0.133 g); type: organism-based; conditions: in vivo, 696 h
# Mus musculus [16] = test: Toxicity in BALB/c mdb mouse implanted with mouse 4T1 cells assessed as lung weight at 300 umol/kg, ip administered five times weekly measured at 29 day post cell innoculum (reference value: 0.2 +/- 0.018 g); type: organism-based; conditions: in vivo, 696 h
# 4T1 [17] = test: Anti-tumor activity against mouse 4T1 cells implanted in BALB/c mdb mouse assessed as lung metastasis at 300 umol/kg, ip administered five times weekly measured at 29 days post cell innoculum (reference value: 56 +/- 25); type: functional
# Mus musculus [18] = test: Toxicity in BALB/c mdb mouse implanted with mouse 4T1 cells assessed as WBC level at 300 umol/kg, ip administered five times weekly measured at 29 day post cell innoculum (reference value: 212.3 +/- 82.8 10^3/uL); type: organism-based; conditions: in vivo, 696 h
# Mus musculus [19] = test: Toxicity in BALB/c mdb mouse implanted with mouse 4T1 cells assessed as RBC level at 300 umol/kg, ip administered five times weekly measured at 29 day post cell innoculum (reference value: 8.6 +/- 0.9 10^6/uL); type: organism-based; conditions: in vivo, 696 h
# Mus musculus [20] = test: Toxicity in BALB/c mdb mouse implanted with mouse 4T1 cells assessed as hemoglobin level at 300 umol/kg, ip administered five times weekly measured at 29 day post cell innoculum (reference value: 15.1 +/- 1.5 g/dl); type: organism-based; conditions: in vivo, 696 h
# Mus musculus [21] = test: Toxicity in BALB/c mdb mouse implanted with mouse 4T1 cells assessed as hematocrit at 300 umol/kg, ip administered five times weekly measured at 29 day post cell innoculum (reference value: 39.9 +/- 3.7 %); type: organism-based; conditions: in vivo, 696 h
# Mus musculus [22] = test: Toxicity in BALB/c mdb mouse implanted with mouse 4T1 cells assessed as serum PLT level at 300 umol/kg, ip administered five times weekly measured at 29 day post cell innoculum (reference value: 972 +/- 157 10^3/uL); type: organism-based; conditions: in vivo, 696 h
# Mus musculus [23] = test: Toxicity in BALB/c mdb mouse implanted with mouse 4T1 cells assessed as serum ALT level at 300 umol/kg, ip administered five times weekly measured at 29 day post cell innoculum (reference value: 23.8 +/- 2.2 U/L); type: organism-based; conditions: in vivo, 696 h
# Mus musculus [24] = test: Toxicity in BALB/c mdb mouse implanted with mouse 4T1 cells assessed as serum AST level at 300 umol/kg, ip administered five times weekly measured at 29 day post cell innoculum (reference value: 136 +/- 10.3 U/L); type: organism-based; conditions: in vivo, 696 h
# Mus musculus [25] = test: Toxicity in BALB/c mdb mouse implanted with mouse 4T1 cells assessed as serum creatinine level at 300 umol/kg, ip administered five times weekly measured at 29 day post cell innoculum (reference value: 9.3 +/- 1.2 umol/L); type: organism-based; conditions: in vivo, 696 h
# Mus musculus [26] = test: Toxicity in BALB/c mdb mouse implanted with mouse 4T1 cells assessed as serum urea level at 300 umol/kg, ip administered five times weekly measured at 29 day post cell innoculum (reference value: 3.8 +/- […]); type: organism-based; conditions: in vivo, 696 h
smiles,measurement,setting,value
S=C=NCc1ccccc1 [BENZYL ISOTHIOCYANATE],Activity,LoVo [1],Active
same,fold change (FC),[2],9.4
same,fold change (FC),LoVo [3],11
same,Activity,LoVo [4],67.6%
same,Activity,[5],64.6%
same,Activity,LoVo [6],Active
same,Activity,LoVo/DX,Active
same,Activity,LoVo [7],17.8%
same,Activity,LoVo [8],Active
same,inhibition in vivo at 300 µmol/kg,4T1 [9],26.8%
same,inhibition in vivo at 300 µmol/kg,4T1 [10],18.1%
same,Activity,Mus musculus [11],Toxic
same,Activity,Mus musculus [12],Non-Toxic
same,Activity,Mus musculus [13],1.21 g
same,Activity,Mus musculus [14],0.13 g
same,Activity,Mus musculus [15],0.428 g
same,Activity,Mus musculus [16],0.245 g
same,Activity,4T1 [17],36
same,Activity,Mus musculus [18],300.8 ×10³ /uL
same,Activity,Mus musculus [19],8.8 ×10⁶ /uL
same,Activity,Mus musculus [20],16 g/dL
same,Activity,Mus musculus [21],45.1%
same,Activity,Mus musculus [22],871 ×10³ /uL
same,Activity,Mus musculus [23],21.5 U/L
same,Activity,Mus musculus [24],158.6 U/L
same,Activity,Mus musculus [25],9.7 µmol/L
same,Activity,Mus musculus [26],5.6 mmol/L

# From ChEMBL document CHEMBL4028815, “Novel phosphonate analogs of sulforaphane: Synthesis, in vitro and in vivo anticancer activity” (Eur J Med Chem, 2017)
